Our source for the melting point values is patent US20030078251A1, “Benzoxazepinones and their use as squalene synthase inhibitors” (priority 2000, published 2003).

On to `COc1cccc([C@H]2O[C@H](CC(=O)NCCCOc3cccc(C(=O)O)c3)C(=O)N(CC(C)(C)CO)c3ccc(Cl)cc32)c1OC` [Example 100, 3-[3-[[(3R,5S)-7-Chloro-5-(2,3-dimethoxyphenyl)-1-(3-hydroxy-2,2-dimethylpropyl)-2-oxo-1,2,3,5-tetrahydro-4,1-benzoxazepin-3-yl]acetyl]aminopropyloxy]benzoic acid], for which the melting point (in general, the temperature of the solid-liquid transition) lay within 132 to 134 °C. The same measure for `COc1ccc(C(=O)O)cc1NC(=O)C[C@H]1O[C@H](c2cccc(OC)c2OC)c2cc(Cl)ccc2N(CC(C)(C)CO)C1=O` [Example 102, 3-[[(3R,5S)-7-Chloro-5-(2,3-dimethoxyphenyl)-1-(3-hydroxy-2,2-dimethylpropyl)-2-oxo-1,2,3,5-tetrahydro-4,1-benzoxazepin-3-yl]acetyl]amino-4-methoxybenzoic acid]: 171 to 173 °C; for `COc1cccc([C@H]2O[C@H](CC(=O)Nc3cc(C(=O)O)ccc3F)C(=O)N(CC(C)(C)CO)c3ccc(Cl)cc32)c1OC` [Example 106, 3-[[[(3R,5S)-7-Chloro-5-(2,3-dimethoxyphenyl)-1-(3-hydroxy-2,2-dimethylpropyl)-2-oxo-1,2,3,5-tetrahydro-4,1-benzoxazepin-3-yl]acetyl]amino]-4-fluorobenzoic acid]: 163 to 166 °C; for `COc1cccc([C@H]2O[C@H](CC(=O)Nc3cc(C(=O)O)ccc3F)C(=O)N(CC(C)(C)COC(C)=O)c3ccc(Cl)cc32)c1OC` [Example 107, 3-[[[(3R,5S)-1-(3-Acetoxy-2,2-dimethylpropyl)-7-chloro-5-(2,3-dimethoxyphenyl)-2-oxo-1,2,3,5-tetrahydro-4,1-benzoxazepin-3-yl]acetyl]amino]-4-fluorobenzoic acid]: 146 to 149 °C. The same measure for `COc1cccc([C@H]2O[C@H](CC(=O)Nc3cc(CCCCC(=O)O)ccc3F)C(=O)N(CC(C)(C)CO)c3ccc(Cl)cc32)c1OC` [Example 108, 5-[3-[[[(3R,5S)-7-Chloro-5-(2,3-dimethoxyphenyl)-1-(3-hydroxy-2,2-dimethylpropyl)-2-oxo-1,2,3,5-tetrahydro-4,1-benzoxazepin-3-yl]acetyl]amino]-4-fluorophenyl]pentanoic acid]: 115 to 118 °C; for `COc1ccc(CC(=O)O)cc1NC(=O)C[C@H]1O[C@H](c2cccc(OC)c2OC)c2cc(Cl)ccc2N(CC(C)(C)CO)C1=O` [Example 109]: 215 to 216 °C; for `COc1ccc(CCCC(=O)O)cc1NC(=O)C[C@H]1O[C@H](c2cccc(OC)c2OC)c2cc(Cl)ccc2N(CC(C)(C)CO)C1=O` [Example 110, 4-[3-[[[(3R,5S)-7-Chloro-5-(2,3-dimethoxyphenyl)-1-(3-hydroxy-2,2-dimethylpropyl)-2-oxo-1,2,3,5-tetrahydro-4,1-benzoxazepin-3-yl]acetyl]amino]-4-methoxyphenyl]butanoic acid]: 119 to 121 °C. With `COc1cccc([C@H]2O[C@H](CC(=O)Nc3cccc(CCCC(=O)O)c3)C(=O)N(CC(C)(C)CO)c3ccc(Cl)cc32)c1OC` [Example 111, 4-[3-[[[(3R,5S)-7-Chloro-5-(2,3-dimethoxyphenyl)-1-(3-hydroxy-2,2-dimethylpropyl)-2-oxo-1,2,3,5-tetrahydro-4,1-benzoxazepin-3-yl]acetyl]amino]phenyl]butanoic acid] the figure was 119 to 122 °C; with `COc1cccc([C@H]2O[C@H](CC(=O)Nc3cc4c(c(C(=O)O)c3)CCCC4)C(=O)N(CC(C)(C)CO)c3ccc(Cl)cc32)c1OC` [Example 112, 3-[[[(3R,5S)-7-Chloro-5-(2,3-dimethoxyphenyl)-1-(3-hydroxy-2,2-dimethylpropyl)-2-oxo-1,2,3,5-tetrahydro-4,1-benzoxazepin-3-yl]acetyl]amino]-5,6,7,8-tetrahydro-1-naphthoic acid], 178 to 179 °C.

Take `COc1cccc([C@@H]2O[C@@H](CC(=O)NCCc3occc3C(=O)O)C(=O)N(CC(C)(C)CO)c3ccc(Cl)cc32)c1OC` [Example 119, 2-[2-[[[(3S,5R)-7-Chloro-5-(2,3-dimethoxyphenyl)-1-(3-hydroxy-2,2-dimethylpropyl)-2-oxo-1,2,3,5-tetrahydro-4,1-benzoxazepin-3-yl]acetyl]amino]ethyl]furan-3-carboxylic acid]: the melting point is 123 to 126 °C. The same measure for `COc1cccc([C@@H]2O[C@@H](CC(=O)Nc3cccc(CCC(=O)O)c3)C(=O)N(CC(C)(C)CO)c3ccc(Cl)cc32)c1OC` [Example 120, 3-[3-[[(3S,5R)-7-Chloro-5-(2,3-dimethoxyphenyl)-1-(3-hydroxy-2,2-dimethylpropyl)-2-oxo-1,2,3,5-tetrahydro-4,1-benzoxazepin-3-yl]acetyl]aminophenyl]propionic Acid]: 137 to 139 °C; for `COc1cccc([C@@H]2O[C@@H](CC(=O)Nc3cc(CCC(=O)O)ccc3F)C(=O)N(CC(C)(C)CO)c3ccc(Cl)cc32)c1OC` [Example 121, 3-[3-[[[(3S,5R)-7-Chloro-5-(2,3-dimethoxyphenyl)-1-(3-hydroxy-2,2-dimethylpropyl)-2-oxo-1,2,3,5-tetrahydro-4,1-benzoxazepin-3-yl]acetyl]amino]-4-fluorophenyl]propionic Acid]: 151 to 153 °C; for `COc1cccc([C@H]2O[C@H](CC(=O)Nc3ccc(OCCCc4ccccc4)c(CCC(=O)O)c3)C(=O)N(CC(C)(C)CO)c3ccc(Cl)cc32)c1OC` [Example 124, 3-[5-[[[(3R,5S)-7-Chloro-5-(2,3-dimethoxyphenyl)-1-(3-hydroxy-2,2-dimethylpropyl)-2-oxo-1,2,3,5-tetrahydro-4,1-benzoxazepin-3-yl]acetyl]amino]-2-(3-phenylpropyloxy)phenyl]propionic Acid]: 147 to 149 °C.

With `COc1cccc([C@H]2O[C@H](CC(=O)Nc3cc(CCC(=O)O)ccc3OCCCc3ccccc3)C(=O)N(CC(C)(C)CO)c3ccc(Cl)cc32)c1OC` [Example 125, 3-[3-[[[(3R,5S)-7-Chloro-5-(2,3-dimethoxyphenyl)-1-(3-hydroxy-2,2-dimethylpropyl)-2-oxo-1,2,3,5-tetrahydro-4,1-benzoxazepin-3-yl]acetyl]amino]-4-(3-phenylpropyloxy)phenyl]propionic Acid], the melting point lay within 162 to 165 °C. The same measure for `COc1cccc([C@H]2O[C@H](CC(=O)Nc3cccc4c(C(=O)O)cccc34)C(=O)N(CC(C)(C)CO)c3ccc(Cl)cc32)c1OC` [Example 129, 5-[[2-[(3R,5S)-7-Chloro-5-(2,3-dimethoxyphenyl)-1-(3-hydroxy-2,2-dimethylpropyl)-2-oxo-1,2,3,5-tetrahydro-4,1-benzoxazepin-3-yl]acetyl]amino]-1-naphthoic acid]: 171 to 174 °C; for `COc1cccc([C@H]2O[C@H](CC(=O)Nc3ccc(OC(F)(F)C(=O)O)cc3)C(=O)N(CC(C)(C)CO)c3ccc(Cl)cc32)c1OC` [Example 132, 2-[4-[[[(3R,5S)-7-Chloro-5-(2,3-dimethoxyphenyl)-1-(3-hydroxy-2,2-dimethylpropyl)-2-oxo-1,2,3,5-tetrahydro-4,1-benzoxazepin-3-yl]acetyl]amino]phenyloxy]-2,2-difluoroacetic acid]: 149 to 150 °C.
